The assay addresses T1, Glycogen phosphorylase, muscle form (Oryctolagus cuniculus, UniProt P00489).
T1 sequence (P00489 whole entry): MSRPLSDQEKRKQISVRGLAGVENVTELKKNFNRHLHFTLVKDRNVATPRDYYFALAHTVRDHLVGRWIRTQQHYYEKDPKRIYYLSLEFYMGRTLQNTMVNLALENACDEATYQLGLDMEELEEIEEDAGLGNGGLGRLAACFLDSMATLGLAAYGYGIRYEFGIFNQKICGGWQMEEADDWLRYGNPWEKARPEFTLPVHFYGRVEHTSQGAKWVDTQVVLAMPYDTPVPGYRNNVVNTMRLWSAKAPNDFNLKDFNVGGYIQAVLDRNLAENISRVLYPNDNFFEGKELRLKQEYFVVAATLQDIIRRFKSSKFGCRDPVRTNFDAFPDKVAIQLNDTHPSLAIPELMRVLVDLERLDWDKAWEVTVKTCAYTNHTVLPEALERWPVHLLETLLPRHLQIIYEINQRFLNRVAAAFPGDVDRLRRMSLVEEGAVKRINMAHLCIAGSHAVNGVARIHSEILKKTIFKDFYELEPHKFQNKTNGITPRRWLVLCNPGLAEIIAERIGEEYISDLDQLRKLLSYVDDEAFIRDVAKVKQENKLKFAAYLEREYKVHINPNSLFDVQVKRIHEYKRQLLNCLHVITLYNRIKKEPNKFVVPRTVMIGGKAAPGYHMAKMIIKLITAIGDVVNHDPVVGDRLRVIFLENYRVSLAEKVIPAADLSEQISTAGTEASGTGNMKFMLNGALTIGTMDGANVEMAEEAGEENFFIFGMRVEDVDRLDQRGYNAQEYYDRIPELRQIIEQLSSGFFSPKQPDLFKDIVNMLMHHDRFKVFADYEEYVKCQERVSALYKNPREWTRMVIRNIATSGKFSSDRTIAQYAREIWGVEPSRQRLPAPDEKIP
Briefly: Competitive inhibition of rabbit muscle glycogen phosphorylase b assessed as inorganic phosphate release using alphaD glucose-1-phosphate as substrate at pH 6.8 by spectrophotometric analysis. Also on record: species or system Muscle tissue.

Molecules are shown by their SMILES.

For orientation: IC50 means the midpoint of a concentration-inhibition curve. Usually Ki stands for the equilibrium dissociation constant of an inhibitor or competing ligand from its target. Turning to `OC[C@H]1O[C@@H](c2cc(O)ccc2O)[C@H](O)[C@@H](O)[C@@H]1O`, the concentration for half-maximal inhibition (IC50) is 977 µM and the inhibition constant (Ki) stood at 900 µM. For the molecule `OC[C@H]1O[C@@H](c2cc(O)cc(Cl)c2O)[C@H](O)[C@@H](O)[C@@H]1O`, the IC50 worked out at 95 µM. As for `O=C1C=CC(=O)C([C@@H]2O[C@H](CO)[C@@H](O)[C@H](O)[C@H]2O)=C1`, the inhibition constant Ki was found to be 1300 µM.
